Experimental data published in patent US20240025906A1 (NEURON23, INC., priority 2022, published 2024).
Like-named read-outs stand apart in the source and are kept apart here.

Legend:
Psoriasis patients = conditions: humans; TYK2 inhibitor; background statement citing Armstrong et al, Ann of Rheu Dis, 2020; cited from earlier work
TYK2 JH2 = target: T1, TYK2 JH2 (Homo sapiens, UniProt P29597); assay: TYK2 JH2 binding assay (KINOMEscan KdELECT competitive binding); conditions: TYK2 JH2 domain, read-out: Biochemical TYK2_DiscoverX_JH2_BND_Kd
T1 construct: purchased DiscoverX (KINOMEscan KdELECT service); host or cells: E. coli BL21-derived (T7 phage display) or HEK-293
T1 sequence (P29597 589-875 limits assumed): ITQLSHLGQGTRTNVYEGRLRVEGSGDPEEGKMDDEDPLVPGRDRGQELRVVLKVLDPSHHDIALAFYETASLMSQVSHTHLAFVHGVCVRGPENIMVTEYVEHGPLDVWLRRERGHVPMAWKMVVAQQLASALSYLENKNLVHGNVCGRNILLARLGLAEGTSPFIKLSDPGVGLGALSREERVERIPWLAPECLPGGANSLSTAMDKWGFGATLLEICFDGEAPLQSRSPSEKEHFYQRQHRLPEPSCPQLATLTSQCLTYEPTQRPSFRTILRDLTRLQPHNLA
How it was run: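 JH2-domain fragment, expressed as T7 phage tag in BL21-derived E. coli or DNA-tagged from HEK-293, competed with test compound against bead-immobilized biotinylated ligand in binding buffer (0.9% DMSO). 1 h shaking at room temperature; bound kinase eluted with 0.5 μM free ligand and quantified by qPCR. Kd from 11-point 3-fold dilutions.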

[1] = tested on: JAK1/TYK2 pSTAT5 (Tyr694/699) in THP-1 cell line; assay: IFNa-stimulated JAK1/TYK2 pSTAT5 (Tyr694/699) inhibition cellular assay, AlphaLISA; format: cell-based; conditions: Homo sapiens, THP-1 cells, AlphaLISA (Assay B), read-out: Cellular_THP1_IFNa-pSTATS_TYK2
How it was run: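 pSTAT5 (Tyr694/699) in lysates quantified by AlphaLISA (615 nm) after 30 min IFNa stimulation (100 ng/mL stock) of THP-1 cells. The cells, 2e4 per well in HBSS, had first been exposed 1 h at 37° C. to eight 6-fold compound dilutions, 10000 down to 0.04 nM final. IC50 fitted by 4PL regression, bottom 0, Hill slope −1.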

[2] = DiscoverX KINOMEscan KdELECT (Assay A)

Row | Kd (TYK2 JH2; [2]) [nM] | IC50 ([1]; IFNa-stimulated) [nM] | Kd (TYK2 JH2; KINOMEscan KdELECT (Assay A)) [nM] | IC50 ([1]; IFNa-stimulated pSTAT5 (Tyr694/699)) [nM] | Molecule | efficacy in Psoriasis patients (Psoriasis patients)
1 |  |  |  |  | deucravacitinib | efficacy
2 | ≤ 100 | ≤ 500 |  |  | CNc1ncc(-c2nc3c(NC(C)=O)cccc3o2)c2cc(NC(=O)C3CC3)ncc12 [Example 444, N-(5-(4-acetamidobenzo[d]oxazol-2-yl)-8-(methylamino)-2,7-naphthyridin-3-yl)cyclopropanecarboxamide] | 
3 | ≤ 100 | ≤ 500 |  |  | CNc1ncc(-c2nc3c(Cl)cccc3o2)c2cc(NC(=O)C3CC3)ncc12 [Example 204, N-(5-(4-chlorobenzo[d]oxazol-2-yl)-8-(methylamino)-2,7-naphthyridin-3-yl)cyclopropanecarboxamide] | 
4 | ≤ 100 | ≤ 500 |  |  | CCNc1ncc(-c2nc3ccc(N4CCOCC4)cn3n2)c2cc(NC(=O)C3CC3)ncc12 [Example 514, N-(8-(ethylamino)-5-(6-morpholino-[1,2,4]triazolo[1,5-a]pyridin-2-yl)-2,7-naphthyridin-3-yl)cyclopropanecarboxamide] | 
5 |  | ≤ 500 | ≤ 100 |  | [2H]C([2H])([2H])Nc1ncc(C#Cc2ccc3nc(C(F)F)n(C)c3c2)c2cc(NC(=O)C3CC3)ncc12 [Example 818, N-(5-((2-(difluoromethyl)-1-methyl-1H-benzo[d]imidazol-6-yl)ethynyl)-8-((methyl-d3)amino)-2,7-naphthyridin-3-yl)cyclopropanecarboxamide] | 
6 |  |  | ≤ 100 | ≤ 500 | CNc1ncc(-c2nc3ccc(N4CCOC(C(C)(C)F)C4)cn3n2)c2cc(NC(=O)C3CC3)ncc12 (centres unmarked) [Example 1048] | 
7 | ≤ 100 | ≤ 500 |  |  | CNc1ncc(-c2nc3c(Cl)cccn3n2)c2cc(NC(=O)C3CC3)ncc12 [Example 491, N-(5-(8-chloro-[1,2,4]triazolo[1,5-a]pyridin-2-yl)-8-(methylamino)-2,7-naphthyridin-3-yl)cyclopropanecarboxamide] | 
8 | ≤ 100 | ≤ 500 |  |  | CNc1ncc(-c2nc3cc(OC)ccc3o2)c2cc(NC(=O)[C@@H]3C[C@H]3C#N)ncc12 (racemic) [Example 385, 2-cyano-N-(5-(5-methoxybenzo[d]oxazol-2-y1)-8-(methylamino)-2,7-naphthyridin-3-yl)cyclopropane-1-carboxamide] | 
9 | ≤ 100 | ≤ 500 |  |  | CNc1ncc(-c2nc3ccc(N4CCOCC4)cn3n2)c2cc(NC(=O)[C@@H]3C[C@@H]3C(F)F)ncc12 (single isomer, unassigned) [Example 535] | 
10 | ≤ 100 | ≤ 500 |  |  | CNc1ncc(-c2nc3cc(C4CCN(C5COC5)CC4)ccc3o2)c2cc(NC(=O)C3CC3)ncc12 [Example 360, N-(8-(methylamino)-5-(5-(1-(oxetan-3-yl)piperidin-4-yl)benzo[d]oxazol-2-yl)-2,7-naphthyridin-3-yl)cyclopropanecarboxamide] | 
11 | ≤ 100 | > 500 |  |  | O=C(Nc1cc2c(-c3nc4ccccn4n3)cnc(NC3CC3)c2cn1)C1CC1 [Example 519, N-(5-([1,2,4]triazolo[1,5-a]pyridin-2-yl)-8-(cyclopropylamino)-2,7-naphthyridin-3-yl)cyclopropanecarboxamide] | 
12 | ≤ 100 | ≤ 500 |  |  | CNc1ncc(-c2nc3ccc(N4CC5CN(C6CC6)CC(C4)O5)cn3n2)c2cc(NC(=O)C3CC3)ncc12 [Example 582, N-(5-(6-(7-cyclopropyl-9-oxa-3,7-diazabicyclo[3.3.1]nonan-3-yl)-[1,2,4]triazolo[1,5-a]pyridin-2-yl)-8-(methylamino)-2,7-naphthyridin-3-yl)cyclopropanecarboxamide] | 
13 | ≤ 100 | ≤ 500 |  |  | CNc1ncc(-c2nc3cc(N4CCOCC4)ccc3o2)c2cc(NC(=O)[C@H]3C[C@H]3C)ncc12 [Example 423, (1S,2R)-2-methyl-N-(8-(methylamino)-5-(5-morpholinobenzo[d]oxazol-2-yl)-2,7-naphthyridin-3-yl)cyclopropane-1-carboxamide] | 
14 |  | ≤ 500 | ≤ 100 |  | CNc1ncc(C#Cc2ccc(OCC3COC3)cn2)c2cc(NC(=O)C3CC3)ncc12 [Example 678, N-(8-(methylamino)-5-((5-(oxetan-3-ylmethoxy)pyridin-2-yl)ethynyl)-2,7-naphthyridin-3-yl)cyclopropanecarboxamide] | 
15 | ≤ 100 | ≤ 500 |  |  | CNc1ncc(-c2nc3ccc(OCCS(C)(=O)=O)cn3n2)c2cc(NC(=O)C3CC3)ncc12 [Example 510, N-(8-(methylamino)-5-(6-(2-(methylsulfonyl)ethoxy)-[1,2,4]triazolo[1,5-a]pyridin-2-yl)-2,7-naphthyridin-3-yl)cyclopropanecarboxamide] | 
